Laboratory results: US9682995B2, “Amino-substituted isothiazoles” (BAYER PHARMA AKTIENGESELLSCHAFT, priority 2013, dated 2017)

Key:
[1] = test system: spindle assembly checkpoint; experiment: SAC-Formation - Nocodazole-Induced Assay; format: cell-based; settings: Homo sapiens; HeLa cells, nocodazole 0.1 μg/ml, 24 h, phosphorylated histone H3 on serine 10
Summary of the method: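 HeLa cells were given nocodazole at 0.1 μg/ml final together with compounds (0.005–20 μM, 0.5% DMSO) for 24 h at 37° C. Mitotic cells were counted by phospho-histone H3 Ser10 immunostaining, with cell number from HOECHST 33342, by high-content imaging. The loss of mitotic cells was fitted with a four-parameter Hill equation.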

[2] = test system: spindle assembly checkpoint; experiment: SAC-Formation - Paclitaxel-Induced Assay; format: cell-based; settings: Homo sapiens; HeLa cells, paclitaxel 0.05 μM, 24 h, phosphorylated histone H3 on serine 10
Summary of the method: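 HeLa cells were plated overnight, then given paclitaxel (0.05 μM final) plus compound (0.005-20 μM, 0.5% DMSO) for 24 h at 37° C. Fixed cells were stained for phospho-histone H3 Ser10 and with Hoechst, then imaged to give mitotic index. A fall in mitotic cells marks SAC breakthrough, and values were fit with a four-parameter Hill equation.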

| IC50 [1] | IC50 [2] | Structure (SMILES) |
| --- | --- | --- |
| 350 nM | 960 nM | Cc1nsc(Nc2ncc(C(=O)N(C)C)s2)c1C(=O)Nc1ccc(F)c(F)c1 [Example 49, N-(3,4-Difluorophenyl)-5-{[5-(dimethylcarbamoyl)-1,3-thiazol-2-yl]amino}-3-methyl-1,2-thiazole-4-carboxamide] |
| 200 nM | 490 nM | COc1ccc(NC(=O)c2c(C)nsc2Nc2cnc3ccc(F)cc3n2)cn1 [Example 44, 5-[(7-Fluoroquinoxalin-2-yl)amino]-N-(6-methoxypyridin-3-yl)-3-methyl-1,2-thiazole-4-carboxamide] |
| 520 nM | 390 nM | Cc1nsc(Nc2ccn3nccc3n2)c1C(=O)Nc1ccc(F)c(F)c1 [Example 57, N-(3,4-Difluorophenyl)-3-methyl-5-(pyrazolo[1,5-a]pyrimidin-5-ylamino)-1,2-thiazole-4-carboxamide] |
| 1300 nM | 3000 nM | CCc1ccccc1NC(=O)c1c(C)nsc1Nc1cc(-n2ccnc2)ncn1 [Example 9, N-(2-Ethylphenyl)-5-{[6-(1H-imidazol-1-yl)pyrimidin-4-yl]amino}-3-methyl-1,2-thiazole-4-carboxamide] |
| 92 nM | 63 nM | COc1ccc(NC(=O)c2c(C)nsc2Nc2nc3c(C(F)(F)F)cccc3s2)cc1F [Example 47, N-(3-Fluoro-4-methoxyphenyl)-3-methyl-5-{[4-(trifluoromethyl)-1,3-benzothiazol-2-yl]amino}-1,2-thiazole-4-carboxamide] |
| 3800 nM | 8500 nM | COc1ccc(NC(=O)c2c(C)nsc2Nc2nccnc2C#N)cn1 [Example 24, 5-[(3-Cyanopyrazin-2-yl)amino]-N-(6-methoxypyridin-3-yl)-3-methyl-1,2-thiazole-4-carboxamide] |
| 88 nM | 2500 nM | CCOc1ccc(NC(=O)c2c(C)nsc2Nc2cnc3ccccc3n2)cn1 [Example 119, N-(6-Ethoxypyridin-3-yl)-3-methyl-5-(quinoxalin-2-ylamino)-1,2-thiazole-4-carboxamide] |
| 1800 nM | 2900 nM | CCc1ccccc1NC(=O)c1c(C)nsc1Nc1nc2ccccc2o1 [Example 11, 5-(1,3-Benzoxazol-2-ylamino)-N-(2-ethylphenyl)-3-methyl-1,2-thiazole-4-carboxamide] |
| 650 nM | 3800 nM | Cc1nsc(Nc2ccc(C#N)cn2)c1C(=O)Nc1ccc(OC(C)C)nc1 [Example 110, 5-[(5-Cyanopyridin-2-yl)amino]-N-(6-isopropoxyridin-3-yl)-3-methyl-1,2-thiazole-4-carboxamide] |
| 60 nM | 56 nM | Cc1nsc(Nc2cc(C#N)ccn2)c1C(=O)Nc1ccc(OC2CCCCC2)nc1 [Example 118, 5-[(4-Cyanopyridin-2-yl)amino]-N-[6-(cyclohexyloxy)pyridin-3-yl]-3-methyl-1,2-thiazole-4-carboxamide] |
| 2000 nM | 20000 nM | Cc1nsc(Nc2cncc(N(C)C)n2)c1C(=O)Nc1ccc(F)c(F)c1 [Example 105, N-(3,4-Difluorophenyl)-5-{[6-(dimethylamino)pyrazin-2-yl]amino}-3-methyl-1,2-thiazole-4-carboxamide] |
